We go through 1 compound from US20240033244A1, “COMPOSITIONS AND METHODS FOR INHIBITING YTHDF1” (SHANGHAI INSTITUTE OF MATERIA MEDICA, CHINESE ACADEMY OF …, priority 2020, published 2024).

The target of one assay is T1, His-YTHDF1 (361-559) (Homo sapiens, UniProt Q9BYJ9).
T1 construct: made in house; host or cells: E. coli BL21 (DE3)
T1 sequence (Q9BYJ9 with tags, fused parts or gaps): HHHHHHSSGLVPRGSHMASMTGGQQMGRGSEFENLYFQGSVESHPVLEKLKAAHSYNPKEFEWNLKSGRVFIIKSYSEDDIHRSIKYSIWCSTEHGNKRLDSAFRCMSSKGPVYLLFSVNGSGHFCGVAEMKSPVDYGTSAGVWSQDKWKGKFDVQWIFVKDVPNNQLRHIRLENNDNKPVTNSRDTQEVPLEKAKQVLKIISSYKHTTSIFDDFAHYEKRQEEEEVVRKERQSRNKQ
Kind of assay: AlphaScreen competition assay against non-biotinylated m6A-containing mRNA. The assay is classed as binding. The procedure:
200 nM His-YTHDF1 (361-559) was incubated with non-biotinylated m^6A-containing mRNA at 4° C. for 10 minutes. […] Next, 20 nM biotinylated m^6A-containing mRNA and two kinds of beads were added in subdued light and incubated at 4° C. for 1 hour before detection.
A competitive binding experiment was performed against fixed concentrations of non-biotinylated m^6A-containing mRNA, based on AlphaScreen assay, using 200 nM YTHDF1 and 20 nM biotinylated m^6A-containing mRNA.

The subject of the next assay is FLT3L-DCs. Nature of the assay: FLT3L-DC direct-priming of OT-I T cells in vitro with OT-I peptide. To be noted: 1 μg/mL OT-I peptide. In kind it is cell-based, mouse. The procedure: Then antigen-obtained DCs were purified and co-cultured with naïve T cells from OT-1 mice at a ratio of 1:10 for 96 h. The co-culture medium was 1640 RPMI contains 10% fetal bovine with or without 1 μg/mL OT-1 (OVA 257-264) peptide. For ex vivo DCs cross-presentation assay, four types of DCs (migration CD11b DC, migration CD103′ DC, resident CD11b DC and resident CD8^+ DC) were sorted in draining lymph node from SAA treated B16-OVA bearing mice at day 12. These DCs were co-cultured with OT-1 naïve T cells in the ratio of 1:10 for 96 hours with or without OT-1 peptide. Supernatant IFN-γ production was detected via CBA assay.
Dendritic cells can activate T cells through cross-priming and/or direct-priming. In direct-priming process, DCs could stimulate T cells via surface co-stimulatory molecules such as CD80/CD86 or cytokines related with T cell activation. To evaluate whether the direct priming function was also affected after SAA administration, bone marrow derived cells (wildtype or Ythdf1 gene deficient) were cultured with FLT3L for 9 days to get FLT3L-DC and these DCs were treated with 10 μM SAA for 12 hours, then, FLT3L-DCs were co-cultured with necrotic B16-OVA tumor cell for 6 hours. […] IFN-γ production was assessed by IFN-γ cytometric bead array. […] Then, IFN-γ production was assessed by IFN-γ cytometric bead array.

A further assay deals with B16-OVA tumor. Nature of the assay: B16-OVA tumor growth in Ythdf1F/F and CD11ccreYthdf1F/F mice. The assay is classed as in vivo, mouse. The settings on record: 2×10^6 B16-OVA, 10 μM SAA day 9 and day 11. The method, then:
For B6 mice tumor growth, 5×10^5 B16-OVA or 1×10^6 E.G7-OVA tumor cells were inoculated subcutaneously (s.c.) into the flank of mice. Tumor length (a) and width (b) was measured every two days and tumor volume was calculated by the formula ab^2/2. For the inhibitor treatment, 10 μM SAA or DMSO was injected intraperitoneally (i.p.) on day 9 and 11 after tumor inoculation. For other mice model (rag1^−/− and Ythdf1 conditional knockout), times and dose of inhibitor treatment was the same. For α-PD-L1 and SAA combination treatment, 5×10^5 B16-OVA tumor cells were inoculated subcutaneously into the flank of mice. 100 μg α-PD-L1 antibody (clone 10F.9G2) or rat immunoglobulin were administered at day 9 after tumor inoculation. 10 μM SAA or DMSO was administered in the same way on day 9 and 11 after tumor injection.
To determine whether DCs are the major targets of SAA, Ythdf1^F/F and CD11c^creYthdf1^F/F mice were injected subcutaneously with 2×10^6 B16-OVA cells. Then, 10 μM SAA was injected to each mouse on day 9 and day 11, and tumor growth was monitored.

For assay [1], the system named is tumor infiltrating T cells. Nature of the assay: Flow cytometry of exhaustion markers on tumor infiltrating T cells. In kind it is in vivo, mouse. The settings on record: 14 days after tumor inoculation. The method, then:
For flow cytometry analysis and DCs sorting, tumors, draining lymph nodes were gathered from mice and digested with 100 U/mL collagenase IV and 20 μg/mL DNase I at 37° C. for 40 min. Digestion was stopped by FACS buffer (PBS contains 2% FBS and 1 mM EDTA) and samples were filtered through 70-μm cell strainer. Samples were stained by specific antibodies in FACS buffer on ice for 30 min. Antibody information was described in Table 1 below. All samples were washed with FACS buffer after staining, cells were analyzed on BD Fortessa and sorted by AriaIII.
In addition, terminally exhausted T cells (PD-1 and Tim-3 double positive cells) were assessed 14 days after tumor inoculation with SAA treatment, and it was observed that the frequency of these tumor infiltrating terminally exhausted T cells (PD-1^+Tim-3^+) decreased in SAA treated mice (FIG. 18b), confirming the enhanced anti-tumor activity.

Structures are written as SMILES.

Regarding `O=C(/C=C/c1ccc(O)c(O)c1/C=C/c1ccc(O)c(O)c1)O[C@H](Cc1ccc(O)c(O)c1)C(=O)O` [SAA, Salvianolic Acid A], the “inhibitory activity against YTHDF1 with competitor” value on His-YTHDF1 (361-559) (50 nM, 100 nM, 200 nM or 400 nM non-biotinylated m6A-containing mRNA preincubated with YTHDF1) is on record as “remained unchanged”. For the same compound, the IC50 on His-YTHDF1 (361-559) (absence of non-biotinylated m6A-containing mRNA, 200 nM YTHDF1, 20 nM biotinylated mRNA, read-out: inhibitory activity against YTHDF1) turned out to be 800 ± 80 nM. For the same compound, the “FLT3L-DC direct-priming function (IFN-γ production)” value in the assay with FLT3L-DCs is listed as “could not enhance”. Besides, the tumor growth result in the assay with B16-OVA tumor (CD11ccreYthdf1F/F mice) is “no further evident effect of tumor control”; in the assay with B16-OVA tumor (Ythdf1F/F mice), “showed analogous situation as observed in CD11c^creYthdf1^F/F mice”. Further, the “CXCR5 expression of PD-1low population” value in assay [1] was “much more CXCR5 than DMSO group”. Besides, in assay [1], the “frequency of tumor infiltrating terminally exhausted T cells (PD-1+Tim-3+)” value is “decreased”.
